PubChem BioAssay AID328 (DTP/NCI, 2004)
Several values for one entry are separate records, joined by “and”; a condition that tells them apart may be missing. Identical values can stand only once. Toxic doses and inconclusive results are not listed.

System: BDF1 mice, P388 leukemia ip, median survival T/C
Experiment: NCI In Vivo Anticancer Drug Screen. Data for tumor model P388 Leukemia (intraperitoneal) in B6D2F1 (BDF1) mice
Conditions: endpoint: median survival time, higher = longer survival
How it was run: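 Compound-treated tumour-bearing mice were compared with vehicle-treated controls. Survival was recorded, and the value is the treated-group measurement divided by the control-group measurement (T/C).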

[1] = dose: 5.0 mg/kg/injection, schedule: Q04DX003 (ip), vehicle: saline
[2] = dose: 100.0 mg/kg/injection, schedule: Q04DX003 (ip), vehicle: Klucel (hydroxypropylcellulose) (HPC)
[3] = dose: 200.0 mg/kg/injection, schedule: Q04DX003 (ip), vehicle: Klucel (hydroxypropylcellulose) (HPC)
[4] = dose: 100.0 mg/kg/injection, schedule: Q04DX003 (ip), vehicle: saline
[5] = dose: 400.0 mg/kg/injection, schedule: Q04DX003 (ip), vehicle: Klucel (hydroxypropylcellulose) (HPC)
[6] = dose: 50.0 mg/kg/injection, schedule: Q04DX003 (ip), vehicle: Klucel (hydroxypropylcellulose) (HPC)
[7] = dose: 50.0 mg/kg/injection, schedule: Q01DX009 (ip), vehicle: saline
[8] = dose: 100.0 mg/kg/injection, schedule: Q01DX009 (ip), vehicle: saline
[9] = dose: 50.0 mg/kg/injection, schedule: Q01DX009 (ip), vehicle: saline with Tween-80
[10] = dose: 100.0 mg/kg/injection, schedule: Q01DX009 (ip), vehicle: saline with Tween-80
[11] = dose: 200.0 mg/kg/injection, schedule: Q01DX009 (ip), vehicle: saline with Tween-80
[12] = dose: 25.0 mg/kg/injection, schedule: Q01DX009 (ip), vehicle: saline with Tween-80
[13] = dose: 50.0 mg/kg/injection, schedule: Q04DX003 (ip), vehicle: saline with Tween-80

For C[n+]1cccc(NC(=O)c2ccc(NC(=O)c3ccc(C(=O)Nc4ccc(NC(=N)N)cc4)cc3)cc2)c1, the T/C (dose: 3.3 mg/kg/injection, schedule: Q04DX003 (ip), vehicle: saline) was 150 % of control, the T/C [1] was 159 % of control and the T/C (dose: 5.56 mg/kg/injection, schedule: Q04DX003 (ip), vehicle: saline) was 180 % of control. For the same molecule, the T/C (dose: 7.5 mg/kg/injection, schedule: Q04DX003 (ip), vehicle: saline) was 195 % of control, the T/C (dose: 8.33 mg/kg/injection, schedule: Q04DX003 (ip), vehicle: saline) was 235 % of control and the T/C (dose: 12.5 mg/kg/injection, schedule: Q04DX003 (ip), vehicle: saline) was 235 % of control. The T/C (dose: 18.7 mg/kg/injection, schedule: Q04DX003 (ip), vehicle: saline) was 155 % of control.
For C/C(C/C(C)=N\NC(=O)CN)=N/NC(=O)CN, the T/C (dose: 33.75 mg/kg/injection, schedule: Q01DX009 (ip), vehicle: saline with Tween-80) was 104 % of control, the T/C (dose: 67.5 mg/kg/injection, schedule: Q01DX009 (ip), vehicle: saline with Tween-80) was 100 % of control and the T/C (dose: 135.0 mg/kg/injection, schedule: Q01DX009 (ip), vehicle: saline with Tween-80) was 106 % of control.
For Cc1cc(C)n(CO)n1, the T/C (dose: 25.0 mg/kg/injection, schedule: Q01DX009 (ip), vehicle: Klucel (hydroxypropylcellulose) (HPC)) was 96 % of control, the T/C (dose: 50.0 mg/kg/injection, schedule: Q01DX009 (ip), vehicle: Klucel (hydroxypropylcellulose) (HPC)) was 107 % of control and the T/C [2] was 108 % of control. For the same molecule, the T/C [3] was 100 % of control.
O=[N+]([O-])C(CO)(CO)CO was tested, and the T/C [4] was 95 % of control, the T/C (dose: 200.0 mg/kg/injection, schedule: Q04DX003 (ip), vehicle: saline) was 100 % of control and the T/C (dose: 400.0 mg/kg/injection, schedule: Q04DX003 (ip), vehicle: saline) was 100 % of control.
For O=C(/C=C\c1ccc(O)cc1)c1ccccc1, the T/C (dose: 100.0 mg/kg/injection, schedule: Q01DX009 (ip), vehicle: Klucel (hydroxypropylcellulose) (HPC)) was 105 % of control, the T/C [2] was 108 % of control and the T/C (dose: 200.0 mg/kg/injection, schedule: Q01DX009 (ip), vehicle: Klucel (hydroxypropylcellulose) (HPC)) was 110 % of control. For the same molecule, the T/C [3] was 100 % of control, the T/C (dose: 400.0 mg/kg/injection, schedule: Q01DX009 (ip), vehicle: Klucel (hydroxypropylcellulose) (HPC)) was 110 % of control and the T/C [5] was 104 % of control.
With Cc1c(C(=O)O)nc(/C=C/C(Cl)(Cl)Cl)[nH]c1=O the T/C (dose: 25.0 mg/kg/injection, schedule: Q04DX003 (ip), vehicle: Klucel (hydroxypropylcellulose) (HPC)) was 102 % of control, the T/C [6] was 100 % of control and the T/C [2] was 115 % of control. For the same molecule, the T/C [3] was 103 % of control and the T/C [5] was 116 % of control.
With O=C(O)CCC(=O)c1cccc2ccccc12 the T/C (dose: 50.0 mg/kg/injection, schedule: Q01DX001 (ip), vehicle: other) was 100 % of control, the T/C [6] was 104 % of control and the T/C (dose: 100.0 mg/kg/injection, schedule: Q01DX001 (ip), vehicle: other) was 90 % of control. The T/C [2] was 100 % of control, the T/C (dose: 200.0 mg/kg/injection, schedule: Q01DX001 (ip), vehicle: other) was 100 % of control and the T/C [3] was 113 % of control.
ClCC1CCN(CCc2ccccc2)CC1 was tested, and the T/C [7] was 95 % of control and the T/C [8] was 99 % of control.
CN(C)C(=O)CCCCC(=O)N(C)C was tested, and the T/C (dose: 1.0 mg/kg/injection, schedule: Q01DX001 (ip), vehicle: saline) was 96 % of control, the T/C (dose: 2.0 mg/kg/injection, schedule: Q01DX001 (ip), vehicle: saline) was 110 % of control and the T/C (dose: 4.0 mg/kg/injection, schedule: Q01DX001 (ip), vehicle: saline) was 106 % of control. The T/C (dose: 8.0 mg/kg/injection, schedule: Q01DX001 (ip), vehicle: saline) was 102 % of control, the T/C (dose: 16.0 mg/kg/injection, schedule: Q01DX001 (ip), vehicle: saline) was 96 % of control and the T/C (dose: 32.0 mg/kg/injection, schedule: Q01DX001 (ip), vehicle: saline) was 100 % of control. The T/C (dose: 64.0 mg/kg/injection, schedule: Q01DX001 (ip), vehicle: saline) was 95 % of control and the T/C (dose: 128.0 mg/kg/injection, schedule: Q01DX001 (ip), vehicle: saline) was 102 % of control.
For CN(C)c1ccc(-c2c3ccccc3nc3ccccc23)cc1, the T/C [9] was 107 % of control, the T/C [10] was 115 % of control and the T/C [11] was 106 % of control.
For COc1ccc2[nH]c(-c3ccccc3)c(-c3ccccc3)c2c1, the T/C [12] was 95 % of control, the T/C [9] was 90 % of control and the T/C [10] was 90 % of control.
In the case of OC(c1ccc(Cl)cc1)C1CCNCC1 (stereo unspecified), the T/C [7] was 90 % of control and the T/C [8] was 102 % of control.
COc1cc(OC)cc(OC)c1 was tested, and the T/C (dose: 40.0 mg/kg/injection, schedule: Q01DX009 (ip), vehicle: Klucel (hydroxypropylcellulose) (HPC)) was 108 % of control, the T/C (dose: 80.0 mg/kg/injection, schedule: Q01DX009 (ip), vehicle: Klucel (hydroxypropylcellulose) (HPC)) was 100 % of control and the T/C (dose: 160.0 mg/kg/injection, schedule: Q01DX009 (ip), vehicle: Klucel (hydroxypropylcellulose) (HPC)) was 106 % of control.
In the case of CCN1CC=CCC1, the T/C (dose: 25.0 mg/kg/injection, schedule: Q01DX009 (ip), vehicle: saline) was 95 % of control, the T/C (dose: 25.0 mg/kg/injection, schedule: Q04DX003 (ip), vehicle: saline) was 95 % of control and 104 % of control and 118 % of control and the T/C (dose: 35.0 mg/kg/injection, schedule: Q04DX003 (ip), vehicle: saline) was 109 % of control. The T/C [7] was 100 % of control, the T/C (dose: 75.0 mg/kg/injection, schedule: Q04DX003 (ip), vehicle: saline) was 86 % of control and the T/C [8] was 116 % of control. For the same molecule, the T/C [4] was 109 % of control.
O=[N+]([O-])c1ccc(/C=N\Nc2ccc([N+](=O)[O-])cn2)cc1 was tested, and the T/C (dose: 12.5 mg/kg/injection, schedule: Q01DX009 (ip), vehicle: saline with Tween-80) was 110 % of control, the T/C [12] was 120 % of control and the T/C [9] was 120 % of control. The T/C [10] was 90 % of control, the T/C (dose: 100.0 mg/kg/injection, schedule: Q04DX003 (ip), vehicle: saline sonified) was 100 % of control and the T/C [11] was 90 % of control. The T/C (dose: 200.0 mg/kg/injection, schedule: Q04DX003 (ip), vehicle: saline sonified) was 110 % of control and the T/C (dose: 400.0 mg/kg/injection, schedule: Q04DX003 (ip), vehicle: saline sonified) was 120 % of control.
For S=C(S)NNc1ccccc1, the T/C [12] was 86 % of control, the T/C (dose: 25.0 mg/kg/injection, schedule: Q04DX003 (ip), vehicle: saline with Tween-80) was 110 % of control and the T/C [9] was 100 % of control. The T/C [13] was 105 % of control, the T/C [10] was 100 % of control and the T/C (dose: 100.0 mg/kg/injection, schedule: Q04DX003 (ip), vehicle: saline with Tween-80) was 100 % of control.
In the case of O=C(Nc1cccc(C2=NCCN2)c1)c1ccc(C(=O)Nc2cccc(C3=NCCN3)c2)c(Cl)c1, the T/C (dose: 1.0 mg/kg/injection, schedule: Q01DX010 (ip), vehicle: water) was 100 % of control, the T/C (dose: 2.0 mg/kg/injection, schedule: Q01DX010 (ip), vehicle: water) was 100 % of control and the T/C (dose: 4.0 mg/kg/injection, schedule: Q01DX010 (ip), vehicle: water) was 100 % of control.
With CCCSC(CC=O)CCC (stereo unspecified) the T/C (dose: 100.0 mg/kg/injection, schedule: Q01DX001 (ip), vehicle: suspension in saline) was 106 % of control, the T/C (dose: 200.0 mg/kg/injection, schedule: Q01DX001 (ip), vehicle: suspension in saline) was 92 % of control and the T/C (dose: 400.0 mg/kg/injection, schedule: Q01DX001 (ip), vehicle: suspension in saline) was 88 % of control.
For COC1(c2ccco2)OC1(C)C (stereo unspecified), the T/C (dose: 5.0 mg/kg/injection, schedule: Q01DX009 (ip), vehicle: Klucel (hydroxypropylcellulose) (HPC)) was 86 % of control, the T/C [1] was 109 % of control and the T/C (dose: 10.0 mg/kg/injection, schedule: Q01DX009 (ip), vehicle: Klucel (hydroxypropylcellulose) (HPC)) was 86 % of control. For the same molecule, the T/C (dose: 10.0 mg/kg/injection, schedule: Q04DX003 (ip), vehicle: saline) was 109 % of control, the T/C (dose: 20.0 mg/kg/injection, schedule: Q01DX009 (ip), vehicle: Klucel (hydroxypropylcellulose) (HPC)) was 90 % of control and the T/C (dose: 20.0 mg/kg/injection, schedule: Q04DX003 (ip), vehicle: saline) was 104 % of control.
For C/C(=N/N)c1ccc(Br)cc1, the T/C (dose: 3.0 mg/kg/injection, schedule: Q01DX009 (ip), vehicle: saline with Tween-80) was 103 % of control, the T/C (dose: 6.0 mg/kg/injection, schedule: Q01DX009 (ip), vehicle: saline with Tween-80) was 92 % of control and the T/C (dose: 22.0 mg/kg/injection, schedule: Q04DX003 (ip), vehicle: saline with Tween-80) was 118 % of control. The T/C (dose: 34.0 mg/kg/injection, schedule: Q04DX003 (ip), vehicle: saline with Tween-80) was 118 % of control and 122 % of control and the T/C [13] was 122 % of control.
In the case of CCCCCSC(=S)N(C)NC(=O)c1ccccn1, the T/C [9] was 103 % of control, the T/C [10] was 101 % of control and the T/C [11] was 100 % of control.
